Our source for the IC50 and Ki values is BindingDB's records for doi:10.1016/j.bioorg.2015.10.007 (University of Thessaly, 2015).

As usually defined, the IC50 is the concentration that inhibits the measured activity by half. The low end stands for higher potency, the high end for lower potency. For orientation: Ki means the equilibrium dissociation constant of an inhibitor or competing ligand from its target. Low readings indicate a stronger hold on the target, high ones a looser hold on the target.

Experiment [1] deals with T1, Non-secretory ribonuclease (Homo sapiens, UniProt P10153).
T1 sequence (P10153 whole entry): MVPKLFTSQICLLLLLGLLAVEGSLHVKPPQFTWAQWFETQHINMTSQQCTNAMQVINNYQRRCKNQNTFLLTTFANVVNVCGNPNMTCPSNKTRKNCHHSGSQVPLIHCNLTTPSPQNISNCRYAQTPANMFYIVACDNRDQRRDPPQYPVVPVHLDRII
In words: Ribonuclease Activity Assay. The conditions noted are these: 30 °C. The procedure: (§1) The Ribonuclease Activity assay used was adapted from the procedure described by Anfinsen et al. and Slifman et al. Determination of ribonuclease activity of RNase A and EDN proceeded as follows: yeast tRNA (Sigma-Aldrich) was solubilized in 50 mM sodium phosphate, pH = 7.4, at a concentration of 60 uM. Various tRNA concentrations were used: 2 uM, 3 uM, 4 uM, 5 uM and 6 uM. The final volume of the reaction was 300 ul. tRNA solutions were incubated at 30 C for 10 min. 10 nM of enzyme final concentration from a 0.6 uM stock solution added to the reactionmixture. The reaction was stopped one minute and five minutes later in the case of RNase A and EDN respectively, by the addition of 300 ul of fresh ice-cold solution of 40 mM lanthanum nitrate, 6% v/v perchloric acid. Stopped reactions were maintained on ice for 15 min, and insoluble tRNA was removed by centrifugation at 4 C for 15 min at 14.500 rpm on a bench centrifuge. The amountof cleaved tRNA was determined from the ultraviolet absorbance at 260 nm (A260) of the supernatant fraction.

Another experiment concerns the target Ribonuclease pancreatic (Bos taurus, UniProt P61823). Briefly: Ribonuclease Activity Assay. The note with it: 30 °C. The method, then:
as §1

Sequence of Ribonuclease pancreatic (P61823 whole entry): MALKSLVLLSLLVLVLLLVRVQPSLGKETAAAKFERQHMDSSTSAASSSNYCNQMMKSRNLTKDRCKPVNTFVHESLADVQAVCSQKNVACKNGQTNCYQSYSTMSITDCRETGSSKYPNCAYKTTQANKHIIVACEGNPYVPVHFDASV

For `O=c1ccn(Cc2cn([C@@H]3O[C@H](CO)[C@H](O)C3O)nn2)c(=O)[nH]1` (stereo partly drawn) [1-({1-[(2R,5R)-3,4-dihydroxy-5-(hydroxymethyl)oxolan-2-yl]-1H-1,2,3-triazol-4-yl}methyl)-1,2,3,4-tetrahydropyrimidine-2,4-dione (I)], in experiment [1], the IC50 worked out at 179 µM and the affinity corresponds to a Ki of 116 µM.
For `O=c1[nH]c(=O)n(Cc2cn([C@@H]3O[C@H](CO)[C@H](O)C3O)nn2)cc1F` (stereo partly drawn) [1-({1-[(2R,5R)-3,4-dihydroxy-5-(hydroxymethyl)oxolan-2-yl]-1H-1,2,3-triazol-4-yl}methyl)-5-fluoro-1,2,3,4-tetrahydropyrimidine-2,4-dione (III)] the same measures were 63.7 µM and 44.2 µM.
Turning to `Nc1ncnc2c1ncn2Cc1cn([C@@H]2C(O)[C@H](n3cc(F)c(=O)[nH]c3=O)O[C@@H]2CO)nn1` (stereo partly drawn) [1-[3'-[4-[(Adenine-9-yl)methyl]-1,2,3-triazol-1-yl]-b-D-ribofuranosyl]5-fluorouracil (5c)], at Ribonuclease pancreatic, the Ki was found to be 265 µM.
Still for that read-out and setting: the same measure for `Nc1ncnc2c1ncn2Cc1cn([C@@H]2C(O)[C@H](n3ccc(=O)[nH]c3=O)O[C@@H]2CO)nn1` (stereo partly drawn) [1-[3'-[4-[(Adenine-9-yl)methyl]-1,2,3-triazol-1-yl]-b-D-ribofuranosyl]uracil (5a)]: 159 µM.
In experiment [1], `O=c1[nH]c(=O)n([C@@H]2O[C@H](CO)[C@H](O)C2O)cc1F` (stereo partly drawn) [1-[(2R,5R)-3,4-dihydroxy-5-(hydroxymethyl)oxolan-2-yl]-5-fluoro-1,2,3,4-tetrahydropyrimidine-2,4-dione (VI)] displayed an IC50 of 282 µM and a Ki of 208 µM.
For `Cc1cn([C@@H]2O[C@H](CO)[C@H](O)C2O)c(=O)[nH]c1=O` (stereo partly drawn) [1-[(2R,5R)-3,4-dihydroxy-5-(hydroxymethyl)oxolan-2-yl]-5-methyl-1,2,3,4-tetrahydropyrimidine-2,4-dione (IV)], in that order: 33.1 µM and 26.1 µM.
For `O=c1[nH]c(=O)n(Cc2cn([C@@H]3O[C@H](CO)[C@H](O)C3O)nn2)cc1Cl` (stereo partly drawn) [5-chloro-1-({1-[(2R,5R)-3,4-dihydroxy-5-(hydroxymethyl)oxolan-2-yl]-1H-1,2,3-triazol-4-yl}methyl)-1,2,3,4-tetrahydropyrimidine-2,4-dione (II)], in that order: 535 µM and 454 µM.
For `O=c1[nH]c(=O)n([C@@H]2O[C@H](CO)[C@H](O)C2O)cc1Cl` (stereo partly drawn) [5-chloro-1-[(2R,5R)-3,4-dihydroxy-5-(hydroxymethyl)oxolan-2-yl]-1,2,3,4-tetrahydropyrimidine-2,4-dione (V)] the same measures were 1460 µM and 1080 µM.
`NC1=NC=NC2C1N=CN2[C@@H]1O[C@H](CO)[C@H](n2cc(Cn3ccc(N)nc3=O)nn2)C1O` (stereo partly drawn) [9-[3'-[4-[(Cytosine-1-yl)methyl]-1,2,3-triazol-1-yl]-b-D-ribofuranosyl]adenine (11c)]: the Ki on Ribonuclease pancreatic amounted to 98.5 µM; in experiment [1], 57.8 µM. This compound also returned an IC50 in experiment [1] of 88.6 µM.
For `Cc1cn(Cc2cn([C@@H]3C(O)[C@H](n4cnc5c(NC(=O)c6ccccc6)ncnc54)O[C@@H]3CO)nn2)c(=O)[nH]c1=O` (stereo partly drawn) [9-[3'-[4-[(Thymine-1-yl)methyl]-1,2,3-triazol-1-yl]-b-D-ribofuranosyl]N6-benzoyladenine (11b)], in that order: 150 µM, 247 µM and 379 µM.
For `Cc1cn(Cc2cn([C@@H]3C(O)[C@H](N4C=NC5C(N)=NC=NC54)O[C@@H]3CO)nn2)c(=O)[nH]c1=O` (stereo partly drawn) [9-[3'-[4-[(Thymine-1-yl)methyl]-1,2,3-triazol-1-yl]-b-D-ribofuranosyl]adenine (12b)], in that order: 68.8 µM, 365 µM and 559 µM.
For `O=C(Nc1ncnc2c1ncn2[C@@H]1O[C@H](CO)[C@H](n2cc(Cn3ccc(=O)[nH]c3=O)nn2)C1O)c1ccccc1` (stereo partly drawn) [9-[3'-[4-[(Uracil-1-yl)methyl]-1,2,3-triazol-1-yl]-b-D-ribofuranosyl]N6-benzoyladenine (11a)], in that order: 55.5 µM, 267 µM and 409 µM.
As for `NC1=NC=NC2C1N=CN2[C@@H]1O[C@H](CO)[C@H](n2cc(Cn3ccc(=O)[nH]c3=O)nn2)C1O` (stereo partly drawn) [9-[3'-[4-[(Uracil-1-yl)methyl]-1,2,3-triazol-1-yl]-b-D-ribofuranosyl]adenine (12a)], the Ki at Ribonuclease pancreatic stood at 106 µM. Also, in experiment [1], the IC50 was 652 µM and affinity was put at a Ki of 426 µM.
